These results are taken from paper PMC3933948 (Bioorganic & medicinal chemistry, 2013).

Where two headings read alike, the source gives them in different places.

The target of experiment [1] is T1, recombinant human aromatase (CYP19) (Homo sapiens, UniProt P11511).
T1 sequence (P11511 1-503): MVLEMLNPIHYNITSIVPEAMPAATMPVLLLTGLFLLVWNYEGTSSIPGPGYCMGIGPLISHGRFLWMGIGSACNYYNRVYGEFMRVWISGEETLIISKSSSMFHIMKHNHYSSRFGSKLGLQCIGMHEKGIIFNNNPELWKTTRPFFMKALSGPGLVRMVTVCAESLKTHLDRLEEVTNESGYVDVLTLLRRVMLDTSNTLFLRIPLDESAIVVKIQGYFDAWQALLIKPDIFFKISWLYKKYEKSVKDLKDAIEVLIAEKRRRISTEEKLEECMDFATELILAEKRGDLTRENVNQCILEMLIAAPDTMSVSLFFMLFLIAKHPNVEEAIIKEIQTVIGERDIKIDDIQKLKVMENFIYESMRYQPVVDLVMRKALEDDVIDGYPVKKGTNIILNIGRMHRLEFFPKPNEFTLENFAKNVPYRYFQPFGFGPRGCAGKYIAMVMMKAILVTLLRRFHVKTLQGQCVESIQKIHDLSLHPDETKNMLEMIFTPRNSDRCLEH
Put plainly: Fluorescence-based aromatase activity assay. The experiment is classed as biochemical. To be noted: for fold increase in aromatase inhibitory potency vs precursor 1e: compared with 3-(pyridin-3-yl)chroman-4-one 1e; for aromatase inhibition (in words): enzymatic assay.

Another experiment has as its system MCF-7 cells. In words: Estrogen-dependent MCF-7 growth inhibition. The experiment is classed as cell-based, human. Particulars: estrogen-dependent MCF-7 cells.
The target in experiment [2] is T1, recombinant human aromatase (CYP19). Particulars: AI previously synthesized in the authors' lab ref 9; cited from earlier work.
For experiment [3], the system named is non-estrogen dependent MCF-7 cells. In words: Growth inhibition of non-estrogen dependent MCF-7 cells. The experiment is classed as cell-based, human. Particulars: MCF-7 cells raised without estrogen.

Consider `O=C1c2cc(F)ccc2OCC1c1cccnc1` (stereo not shown) [3e, 6-Fluoro-3-(pyridin-3-yl)chroman-4-one], for which the “fold increase in aromatase inhibitory potency vs precursor 1e” value in experiment [1] amounted to 7 fold. In experiment [1] (compared with parent molecule 1a), the “fold increase in aromatase inhibitory potency vs parent 1a” value was found to be 36 fold. Further, in the experiment on MCF-7 cells, the “anti-proliferative activity on MCF-7 (in words)” value (shortened to “anti-proliferative activity”) was “inactive”.
Consider `O=C1c2ccccc2OCC1c1ccc(-c2ccccc2)cc1` (stereo not shown) [1c, 3-(biphenyl-4-yl)chroman-4-one], for which the “anti-proliferative activity” value in the experiment with MCF-7 cells is given as “did not show anti-cancer cell activity”. The “aromatase inhibition (in words)” value in experiment [2] was “inactive”.
Regarding `COc1ccc2c(c1)C(=O)C(c1cccnc1)CO2` (stereo not shown) [3c, 6-methoxy-3-(pyridin-3-yl)chroman-4-one], the “fold increase in aromatase inhibitory potency vs precursor 1e” value in experiment [1] is “more than 2 fold”. In addition, the “growth inhibition (in words)” value in experiment [3] is recorded as “no growth inhibition was observed”. In the experiment with MCF-7 cells, the “anti-proliferative activity” value is “inactive”.
Regarding `COc1ccc2c(c1)C(=O)C(c1ccc(Oc3ccccc3)cc1)CO2` (stereo not shown) [3b, 6-Methoxy-3-(4-phenoxyphenyl)chroman-4-one], in experiment [1], the “aromatase inhibition (in words)” value is “No significant inhibition”.
On the same count and under the same terms, to `O=C1c2c(ccc3ccccc23)OCC1c1ccc(Oc2ccccc2)cc1` (stereo not shown) [3a, 2-(4-Phenoxyphenyl)-2,3-dihydro-1H-benzo[f]chromen-1-one] belongs “No significant inhibition”.
